Target: T1, β-hydroxy-β-methylglutaryl-CoA reductase (Homo sapiens, UniProt P04035)
T1 construct: ISOLATED HEPATOCYTES OF CHICKEN; endogenous in cells; host or cells: isolated hepatocytes of chicken
T1 sequence (P04035 1-888): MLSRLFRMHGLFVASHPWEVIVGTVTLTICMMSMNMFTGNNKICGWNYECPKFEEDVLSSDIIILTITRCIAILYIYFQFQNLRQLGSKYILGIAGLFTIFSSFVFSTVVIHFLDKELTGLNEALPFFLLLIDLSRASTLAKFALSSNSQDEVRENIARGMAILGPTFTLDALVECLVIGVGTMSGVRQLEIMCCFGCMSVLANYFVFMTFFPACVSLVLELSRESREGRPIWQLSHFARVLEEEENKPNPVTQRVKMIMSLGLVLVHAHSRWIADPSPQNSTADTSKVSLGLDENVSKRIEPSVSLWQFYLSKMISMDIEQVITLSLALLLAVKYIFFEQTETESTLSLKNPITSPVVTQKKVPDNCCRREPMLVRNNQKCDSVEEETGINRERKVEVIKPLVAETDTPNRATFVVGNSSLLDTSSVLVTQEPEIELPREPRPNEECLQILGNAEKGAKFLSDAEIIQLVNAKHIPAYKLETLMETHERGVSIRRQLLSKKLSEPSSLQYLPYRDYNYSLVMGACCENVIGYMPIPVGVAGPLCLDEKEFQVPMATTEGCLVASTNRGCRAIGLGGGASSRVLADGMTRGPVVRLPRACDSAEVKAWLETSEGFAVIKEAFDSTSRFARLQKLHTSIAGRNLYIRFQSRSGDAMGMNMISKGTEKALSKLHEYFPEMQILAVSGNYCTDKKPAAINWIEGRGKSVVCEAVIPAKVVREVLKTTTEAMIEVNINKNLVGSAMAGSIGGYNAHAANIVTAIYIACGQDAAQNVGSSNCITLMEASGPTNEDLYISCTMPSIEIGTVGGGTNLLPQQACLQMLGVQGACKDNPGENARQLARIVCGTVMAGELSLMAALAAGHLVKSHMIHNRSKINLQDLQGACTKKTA
Experiment: In vitro HMG-CoA reductase activity in isolated hepatocytes of chicken
Assay type: cell-based
Details: incubation 15 minutes; for β-Hydroxy-β Methylglutaryl-CoA Reductase: means of two replicates
Excerpt: These observed effects on lipogensis and cholesterogenesis could be attributed to the chemical constituents of HPBF, but clearly could not be attributed to the water insoluble plant fibers because they were not present in the latter feeding trials. Moreover, these effects were also obtained in vitro using isolated hepatocytes from chickens and rats. […] Proc. 42:1973 (Abstr.)]. Conditions for the in vitro evaluation of the solvent extracts have been described [Qureshi AA et al. (1983): Inhibition of cholesterol and fatty acid biosynthesis in liver enzymes and chicken hepatocytes by polar fractions of garlic, Lipids 18:343-348].
Cholesterol inhibitor I was re-chromatographed by HPLC and the UV absorption spectrum obtained. Maximum absorption occurred at 292 nm. This purified fraction was used for high resolution mass spectrometric analysis. Several scans were made using ionization temperatures from 90-180 degrees Centigrade to increase the possibility of detecting impurities. The high resolution mass spectrometric analysis and measurements of different peaks gave a molecular ion peak at m/e 424 and main peaks at m/e 385, 205 and 165 corresponding to C29 H44 O2 (molecular formula) C25 H36 O2, C13 H17 O2 and C10 H13 O2 moieties, respectively, which are characteristic fragmentation moieties for d-alpha-tocotrienol. Lemon grass oil is a rich source of d-alpha-tocotrienol. This product and cholesterol inhibitor I at 20 ppm were compared with the petroleum ether soluble fraction of HPBF (20% equivalent HPBF) in a group of older male White Leghorn chickens (Table 3). The results shown on Table 3 confirm those previously recorded for petroleum ether solubles of HPBF and cholestrol inhibitor I. In a final experiment, the effects of cholestrol inhibitor I and lemon grass oil on hepatocyte HMG Co-A reductase and FAS activities were tested. Both components tested in the concentration range 5-100 microgram/ml, produced a concentration-dependent suppression of HMG Co-A reductase and concentration-dependent enhancement of FAS activity (Table 4).
^1 Tenweek-old female chickens were fed standard cornsoy diet. They
were fasted for 48 hrs. and refed 72 hrs. prior to the preparation of
^2 Incubation period was 15 minutes. Values represent means of two
replicates within incubation set.
^3 pmoles of mevalonic acid synthesized per minute per mg of […]

**Q.** Which “β-Hydroxy-β Methylglutaryl-CoA Reductase” value (5 μg/ml) does the source give for CC(C)=CCC/C(C)=C/CC/C(C)=C/CC[C@]1(C)CCc2c(C)c(O)c(C)c(C)c2O1 [Cholesterol inhibitor I, 2,5,7,8-tetramethyl-2 (4,8, 12-trimethyltrideca-3,7, 11-trienyl)chroman-6-ol] here?
**A.** 45 pmoles of mevalonic acid synth

**Q.** And the “β-Hydroxy-β Methylglutaryl-CoA Reductase” value (10 μg/ml)?
**A.** 40 pmoles of mevalonic acid synth

**Q.** And the “β-Hydroxy-β Methylglutaryl-CoA Reductase” value (15 μg/ml)?
**A.** 31 pmoles of mevalonic acid synth

**Q.** And the “β-Hydroxy-β Methylglutaryl-CoA Reductase” value (20 μg/ml)?
**A.** 30 pmoles of mevalonic acid synth

**Q.** And the “β-Hydroxy-β Methylglutaryl-CoA Reductase” value (25 μg/ml)?
**A.** 28 pmoles of mevalonic acid synth

**Q.** What about the “β-Hydroxy-β Methylglutaryl-CoA Reductase” value (50 μg/ml) of the same compound?
**A.** 22 pmoles of mevalonic acid synth

**Q.** And the “β-Hydroxy-β Methylglutaryl-CoA Reductase” value (100 μg/ml)?
**A.** 23 pmoles of mevalonic acid synth

**Q.** What about the remaining activity at 5 µg/mL (0.25 h, 5 μg/ml, read-out: β-Hydroxy-β Methylglutaryl-CoA Reductase, percentage of control) of the same compound?
**A.** 87%

**Q.** And the remaining activity at 10 µg/mL (0.25 h, 10 μg/ml, read-out: β-Hydroxy-β Methylglutaryl-CoA Reductase, percentage of control)?
**A.** 77%

**Q.** What about the remaining activity at 15 µg/mL (0.25 h, 15 μg/ml, read-out: β-Hydroxy-β Methylglutaryl-CoA Reductase, percentage of control) of the same compound?
**A.** 60%

**Q.** What about the remaining activity at 20 µg/mL (0.25 h, 20 μg/ml, read-out: β-Hydroxy-β Methylglutaryl-CoA Reductase, percentage of control) of the same compound?
**A.** 57%

**Q.** What about the remaining activity at 25 µg/mL (0.25 h, 25 μg/ml, read-out: β-Hydroxy-β Methylglutaryl-CoA Reductase, percentage of control) of the same compound?
**A.** 54%

**Q.** What about the remaining activity at 50 µg/mL (0.25 h, 50 μg/ml, read-out: β-Hydroxy-β Methylglutaryl-CoA Reductase, percentage of control) of the same compound?
**A.** 42%

**Q.** What about the remaining activity at 100 µg/mL (0.25 h, 100 μg/ml, read-out: β-Hydroxy-β Methylglutaryl-CoA Reductase, percentage of control) of the same compound?
**A.** 44%
